Test results from ChEMBL document CHEMBL1153321, “Approaches to the simultaneous inactivation of metallo- and serine-beta-lactamases” (Bioorg Med Chem Lett, 2009).

How the values were obtained:
[1] = target: Beta-lactamase TEM (Enterobacter cloacae) (UniProt Q6W9J1); test: Ratio of Kcat to Km of Enterobacter cloacae beta-lactamase TEM-1
Enterobacter cloacae [2] = test: Activity of Enterobacter cloacae beta-lactamase OXA-1
Enterobacter cloacae [3] = test: Ratio of Kcat to Km of Enterobacter cloacae beta-lactamase OXA-1

Sequence of Beta-lactamase TEM (Enterobacter cloacae) (Q6W9J1 as listed by the source): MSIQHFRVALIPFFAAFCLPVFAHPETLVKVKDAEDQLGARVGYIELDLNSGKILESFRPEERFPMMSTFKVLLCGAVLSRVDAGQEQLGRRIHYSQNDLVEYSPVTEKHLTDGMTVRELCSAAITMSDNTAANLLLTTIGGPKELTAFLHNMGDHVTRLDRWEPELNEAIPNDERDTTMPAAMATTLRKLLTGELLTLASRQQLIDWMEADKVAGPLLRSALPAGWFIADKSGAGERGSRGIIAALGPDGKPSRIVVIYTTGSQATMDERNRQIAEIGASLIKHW

Compound `CC(=O)OCC1=C(C(=O)O)N2C(=O)/C(=N/O)[C@H]2SC1` has a Ratio [1] of 158 s⁻¹ M⁻¹, a Km (Enterobacter cloacae [2]) of over 400 µM and a Ratio (Enterobacter cloacae [3]) of 88 s⁻¹ M⁻¹.
Compound `CC(=O)OCC1=C(C(=O)O)N2C(=O)/C(=N/O)[C@H]2S(=O)(=O)C1` has a Ratio [1] of 1690 s⁻¹ M⁻¹, a Km (Enterobacter cloacae [2]) of over 400 µM and a Ratio (Enterobacter cloacae [3]) of 990 s⁻¹ M⁻¹.
Work on `CC(=O)OCC1=C(C(=O)O)N2C(=O)[C@@H](N(O)C=O)[C@H]2SC1` yielded a Ratio [1] of 25 s⁻¹ M⁻¹, a Km (Enterobacter cloacae [2]) of over 400 µM and a Ratio (Enterobacter cloacae [3]) of 75 s⁻¹ M⁻¹.
With `CC(=O)OCC1=C(C(=O)O)N2C(=O)[C@@H](NO)[C@H]2SC1` the Ratio [1] was 2620 s⁻¹ M⁻¹, the Km (Enterobacter cloacae [2]) was over 400 µM and the Ratio (Enterobacter cloacae [3]) was 66 s⁻¹ M⁻¹.
`CC1=C(C(=O)O)N2C(=O)/C(=N/O)[C@H]2S(=O)(=O)C1` showed a Ratio [1] of 40 s⁻¹ M⁻¹.
`CC(=O)OCC1=C(C(=O)O)N2C(=O)[C@@H](NC=O)[C@H]2SC1` was tested, and the Ratio [1] was 6 ×10⁴ /s/M, the Km (Enterobacter cloacae [2]) was 323 µM and the kcat (Enterobacter cloacae [2]) was 1.02 s⁻¹. The Ratio (Enterobacter cloacae [3]) was 3160 s⁻¹ M⁻¹.
`CC(=O)OCC1=C(C(=O)O)N2C(=O)[C@@H](NC(=O)Cc3cccs3)[C@H]2SC1` showed a Ratio [1] of 4.85 ×10⁵ /s/M, a Km (Enterobacter cloacae [2]) of 13.9 µM and a kcat (Enterobacter cloacae [2]) of 1.81 s⁻¹. It also gave a Ratio (Enterobacter cloacae [3]) of 8.51 ×10⁴ /s/M.
Compound `CC(=O)OCC1=C(C(=O)O)N2C(=O)[C@@H](N(O)C(=O)Cc3ccccc3)[C@H]2SC1` has a Ratio [1] of 2620 s⁻¹ M⁻¹, a Km (Enterobacter cloacae [2]) of 60 µM and a kcat (Enterobacter cloacae [2]) of 0.121 s⁻¹. It also gave a Ratio (Enterobacter cloacae [3]) of 2020 s⁻¹ M⁻¹.
